Literature values as cited in patent US7842730B2, “Medical emulsion of perfluororganic compounds and method for the production thereof” (priority 2004, dated 2010).

What was measured:
[1] = for Critical solution temperature, (Tcritical): Table 3; for Tcritical (critical solution temperature in hexane): Table 1
[2] = for Vapor pressure: 37° C., Table 3; for P, vapor pressure: 37°
[3] = 37° C.

| Molecule | Critical solution temperature, (Tcritical) [1] [°C] | Vapor pressure [2] [mm QS] | Tcritical (critical solution temperature in hexane) [1] [°C] | P, vapor pressure [2] [mm QS] | t1/2 (elimination from the organism) [h] | Oxygen solubility [3] |
| --- | --- | --- | --- | --- | --- | --- |
| FC(F)(F)C(F)(F)C(F)(F)C(F)(F)C(F)(F)C(F)(F)C(F)(F)C(F)(F)C(F)(F)C(F)(F)Br [PFDB, Perfluorodecylbromide] | 7 | 1.5 | – | – | – | – |
| FC1(F)C(F)(F)C(F)(F)C2(F)C(F)(F)C(F)(F)C(F)(F)C(F)(F)C2(F)C1(F)F (stereo not drawn) [PFD, perfluorodecaline] | 22 | 12.7 | 22 | 12 | ~170 | 40 ml/100 ml (vol.-%) |
| FC(F)(F)C(F)(F)C(F)(F)C(F)(F)C(F)(F)C(F)(F)C(F)(F)C(F)(F)Br [PFOB, perfluorooctylbromide] | −20 | 10.5 | – | – | ~96 | 53 ml/100 ml (vol.-%) |
| FC(F)(F)C(F)(F)C(F)(F)N(C(F)(F)C(F)(F)C(F)(F)F)C(F)(F)C(F)(F)C(F)(F)F [PFTPA, perfluorotripropylamine] | 44 | 18.0 | 43 | 17 | – | 45 ml/100 ml (vol.-%) |
| perfluoromethylcyclohexylpiperidine [PFMHP] | 40 | 2.0 | 38 | 1 | – | 40 ml/100 ml (vol.-%) |

More lines, main results first:

| Critical solution temperature, (Tcritical) [1] [°C] | Vapor pressure [2] [mm QS] | Tcritical (critical solution temperature in hexane) [1] [°C] | P, vapor pressure [2] [mm QS] | Molecule | t1/2 (elimination from the organism) [h] | Oxygen solubility [3] |
| --- | --- | --- | --- | --- | --- | --- |
| – | – | 13 | 33 | C1CCC2CCCC2C1 (stereo not drawn) [bicyclo[4.3.0]nonane] | – | – |
| – | – | 24 | 2 | C1CC2CCCC3CCC(C1)C23 (stereo not drawn) [decahydroacenaphthene] | – | – |
| – | – | 35 | 19 | CCCN1CCCCC1C (stereo not drawn) [1-propyl-2-methylpiperidine] | – | – |
| – | – | 59 | 2 | CCCCCCOCCCCCC [dihexylether] | – | – |
